Experimental data taken from US20150238488A1, “DRUG COMPOSITION FOR TREATING TUMORS AND APPLICATION THEREOF” (priority 2012, published 2015).
Like-named read-outs stand apart in the source and are kept apart here.

Experiments:
[1] = Experiment 2-2: body weight of tumor-bearing nude mice; assay type: in vivo, BALB/c-nu nude mice; settings: 50 mg/kg each drug, intragastric, 2 times a day, 14 days, x ± s, n=3; for Body weight (g) Final: final (Day 20)
Description: (§1) Under sterile conditions, the above tumor cells were collected in the logarithmic growth phase, and were injected by subcutaneous injection in an amount of 1×10^7/0.2 mL/nude mice (cell viability>95%) into the right subaxillary of the nude mice, thus establishing leukemia transplated tumor models of in nude mice. The mice were administered from the sixth day after the inoculation. The treated group was intragastrically administered at the experimentally designed amount, the negative control group was intragastrically administered with sterile water, and the positive control group was intragastrically administered with IM. Each mouse was intragastrically administered in 0.4 ml each time and 2 times a day. The administrations were successive for 14 days. The day before administration was deemed as Day 0 and the body weight and tumor size of the mice were determined every 5 days to produce a dynamic plot on body weight and tumor growth. On Day 20, the mice were sacrificed and the tumors are taken out and weighed. The tumor inhibition rate (%) was calculated after the effect of the medicament based on a tumor inhibition rate of the control group being zero.

[2] = tested on: K562/ADR leukemia transplanted tumor; test: Experiment 2-2: inhibition of leukemia transplanted tumor in nude mice (TTD, IM); assay type: in vivo, BALB/c-nu nude mice; settings: K562/ADR xenograft, 50 mg/kg each drug, intragastric, 2 times a day, 14 days, Day 20; for Tumor inhibition rate (%): control = 0; for Tumor weight: x ± s
Description: Leukemia cell lines: K562/ADR (ADM-resistant human chronic myeloid leukemia cell line);
(§2) Animals: BALB/c-nu nude mice
as §1

[3] = Experiment 2-1: body weight of tumor-bearing nude mice; assay type: in vivo, BALB/c-nu nude mice; settings: 100 mg/kg each drug, intragastric, 2 times a day, 14 days, x ± s, n=3; for Body weight (g) Final: final (Day 23)
Description: as §1, with “third” for “sixth”, “23,” for “20,”, “were” for “are”

[4] = tested on: KCL-22 M (human chronic granulocytic leukemia cell line mutant); test: MTT cell viability, 72 h, single drugs and combination; assay type: cell-based; settings: read-out: CV(%) cell viability
Description: (§3) Leukemia cell lines: K562 (chronic myeloid leukemia cell line), K562/ADR (doxorubicin(ADM)-resistant human chronic granulocytic leukemia cell line), KCL-22 (chronic myeloid leukemia cell line), KCL-22 M (human chronic granulocytic leukemia cell line mutant), CML-BC (KCL-28 patient's cells), all of which are donated by Cancer Research Institute of Zhejiang University, China; KU812 (chronic myeloid leukemia cell line), purchased from Fuxiang Bio-tech Co. Ltd., Shanghai, China.
(§4) 1. […] Well-growing leukemia cells were obtained and inoculated into wells of a 96-well cell culture plate at 5000 cells/well. Respective compounds of various concentrations were added, mixed uniformly, and incubated (5% CO2) at 37° C. for 72 hours. Then the cell viability was determined by the MTT method.
(§5) 2. Determine the inhibitory effects of bisbenzylisoquinoline in combination with IM on leukemia cells in vitro. The pretreatment of the cells was the same as in a). The control group was not treated with the compound while administered. In the experimental group, compounds were added respectively to the concentration under which the IC50 (μg/mL) of the compounds in step 1 achieves. As to the combination group, the two compounds were added together into the same group of wells. After 72 hours of incubation, the MTT method was used for the determination of cell viability. The cell viability of the control group was set to 100% in this experiment, and the BBM/TTD, IM single drug and combined effects on cell viability (100%) were calculated.

[5] = tested on: KCL-22 (chronic myeloid leukemia cell line); test: as above; assay type: cell-based; settings: Homo sapiens, read-out: CV(%) cell viability
Description: as §3, §4, §5

[6] = tested on: CML-BC (KCL-28 patient's cells); test: as above; assay type: cell-based; settings: read-out: CV(%) cell viability
Description: as §3, §4, §5

[7] = tested on: KU812 (chronic myeloid leukemia cell line); test: as above; assay type: cell-based; settings: Homo sapiens, KU812, 72 h; read-out: CV(%) cell viability
Description: as §3, §4, §5

[8] = tested on: K562 (chronic myeloid leukemia cell line); test: as above; assay type: cell-based; settings: Homo sapiens, read-out: CV(%) cell viability
Description: as §3, §4, §5

[9] = tested on: K562/ADR (doxorubicin(ADM)-resistant human chronic granulocytic leukemia cell line); test: as above; assay type: cell-based; settings: read-out: CV(%) cell viability
Description: as §3, §4, §5

[10] = tested on: K562/ADR leukemia transplanted tumor; test: Experiment 2-1: inhibition of leukemia transplanted tumor in nude mice (BBM, IM); assay type: in vivo, BALB/c-nu nude mice; settings: K562/ADR xenograft, 100 mg/kg each drug, intragastric, 2 times a day, 14 days, Day 23; for Tumor inhibition rate (%): control = 0; for Tumor weight: x ± s
Description: Leukemia cell lines: K562/ADR (ADM-resistant human chronic granulocytic leukemia cell line);
as §2
as §1, with “third” for “sixth”, “23,” for “20,”, “were” for “are”

[11] = tested on: peripheral blood leucocyte of a normal human being; settings: drug concentration 0.5 μg/mL to 10 μg/mL; cited from earlier work
[12] = tested on: human leukemia Jurkat cells; settings: cited from earlier work

For `COc1ccc2cc1Oc1ccc(cc1)C[C@H]1c3cc(c(OC)cc3CCN1C)Oc1c(OC)c(OC)cc3c1[C@H](C2)N(C)CC3` [TTD, 6,6′,7,12-tetramethoxy-2,2′dimethylberbamine], the “Body weight (g) Final” value [1] was 18.93 ± 1.53 g, the “Body weight (g) Initial” value [1] was 21.30 ± 0.10 g and the “Tumor inhibition rate (%)” value [2] was 10.18%. For the same compound, the “Tumor weight” value [2] was 0.83 ± 0.76 g.

With `Cc1ccc(NC(=O)c2ccc(CN3CCN(C)CC3)cc2)cc1Nc1nccc(-c2cccnc2)n1` [IM] the “Body weight (g) Final” value [3] was 17.37 ± 2.75 g, the “Body weight (g) Initial” value [3] was 21.00 ± 0.12 g and the viability at 3.27 µg/mL ([4]; KCL-22 M, IM 3.27 μg/mL (IC50 dose), 72 h, MTT) was 48%. For the same compound, the viability at 0.05 µg/mL ([5]; KCL-22, 72 h) was 51.1%, the viability at 0.08 µg/mL ([5]; KCL-22, IM 0.08 μg/mL (IC50 dose), 72 h, MTT) was 48.5% and the viability at 0.01 µg/mL [6] was 57.1%. The viability at 0.02 µg/mL [6] was 57.1%, the viability at 0.01 µg/mL [7] was 56.7% and the viability at 0.03 µg/mL [7] was 53.3%. It also gave a viability at 0.02 µg/mL ([8]; K562, 72 h) of 57.9%, a viability at 0.03 µg/mL ([8]; K562, 72 h) of 44.2% and a viability at 0.16 µg/mL ([9]; K562/ADR, IM 0.16 μg/mL (IC50 dose), MTT) of 42.5%. The viability at 0.2 µg/mL ([9]; K562/Adr) was 42.3%, the “Body weight (g) Final” value [1] was 18.40 ± 0.52 g and the “Body weight (g) Initial” value [1] was 21.47 ± 0.21 g. The “Tumor inhibition rate (%)” value [10] was 71.98%, the “Tumor weight” value [10] was 0.19 ± 0.27 g and the “Tumor inhibition rate (%)” value [2] was 12.26%. The “Tumor weight” value [2] was 0.81 ± 0.52 g.

For `COc1cc2c3cc1Oc1c(OC)c(OC)cc4c1[C@@H](Cc1ccc(O)c(c1)Oc1ccc(cc1)C[C@@H]3N(C)CC2)N(C)CC4` [BBM, 6,6′,7-trimethoxy-2,2′-dimethylberbaman-12-ol], the “Body weight (g) Final” value [3] was 18.57 ± 2.28 g, the “Body weight (g) Initial” value [3] was 21.23 ± 0.23 g and the viability at 1.7 µg/mL ([4]; KCL-22, 72 h) was 52.4%. The viability at 6.5 µg/mL ([5]; KCL-22, BBM 6.5 μg/mL (IC50 dose), 72 h, MTT) was 50%, the viability at 1.5 µg/mL [6] was 54.4% and the viability at 1.5 µg/mL [7] was 51.6%. The viability at 1.6 µg/mL ([8]; K562, BBM 1.6 μg/mL (IC50 dose), 72 h, MTT) was 44.5%, the viability at 1.5 µg/mL ([9]; K562/Adr) was 46.3% and the cytotoxic effect [11] was “no evident cytotoxic effect”. The “Tumor inhibition rate (%)” value [10] was 63.66%, the “Tumor weight” value [10] was 0.25 ± 0.34 g and the cell viability ([12]; drug concentration 0.5 μg/mL) was 93.69%. For the same compound, the cell viability ([12]; drug concentration 10 μg/mL) was 14.85%.
